Earlier results in patent JP2021073187A, “即効型インスリン組成物” (Eli Lilly and Co, priority 2014, dated 2021).

インスリンリスプロ: drug substance of HUMALOG, CAS 133107-64-9; A chain SEQ ID 1, B chain SEQ ID 3 [28B−L−リジン−29B−L−プロリン ヒトインスリン]
Potency relative to human insulin (on a molar basis): 等しい効力 | Effect after subcutaneous injection relative to injected soluble human insulin (subcutaneous injection): 迅速で短い持続時間
